Data as given in US20080234262A1 (Wyeth, priority 2007, published 2008).

What was measured:
PI3K = PI3K (Homo sapiens, UniProt P42336); assay: Fluorescence polarization assay for PI3K; type: biochemical; details: PI3Kα; read-out: PI3Kα IC50;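 further: PI3K kinase reaction on PIP2 with ATP, 30-60 min, product sensed by GST-GRP with red probe in fluorescence polarization (mP), controls without enzyme and at zero time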
prostate line LNCap = assay: In vitro cell culture growth assay (MTS), LNCap; type: cell-based, human; details: LNCap cells, three days after drug treatment;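 further: viable cell density read by absorbance at 490 nm, growth expressed as percent of vehicle-treated cells on the same plate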
breast line MDA468 = assay: In vitro cell culture growth assay (MTS), MDA468; type: cell-based, human; details: MDA468 cells, three days after drug treatment
In short: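 Growth measured as percent of same-plate vehicle control by MTS metabolic dye conversion (A490). Breast MDA468 and prostate LNCap cells, plated a day ahead, were exposed to compounds for 3 days.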

Sequence of PI3K (P42336 whole entry): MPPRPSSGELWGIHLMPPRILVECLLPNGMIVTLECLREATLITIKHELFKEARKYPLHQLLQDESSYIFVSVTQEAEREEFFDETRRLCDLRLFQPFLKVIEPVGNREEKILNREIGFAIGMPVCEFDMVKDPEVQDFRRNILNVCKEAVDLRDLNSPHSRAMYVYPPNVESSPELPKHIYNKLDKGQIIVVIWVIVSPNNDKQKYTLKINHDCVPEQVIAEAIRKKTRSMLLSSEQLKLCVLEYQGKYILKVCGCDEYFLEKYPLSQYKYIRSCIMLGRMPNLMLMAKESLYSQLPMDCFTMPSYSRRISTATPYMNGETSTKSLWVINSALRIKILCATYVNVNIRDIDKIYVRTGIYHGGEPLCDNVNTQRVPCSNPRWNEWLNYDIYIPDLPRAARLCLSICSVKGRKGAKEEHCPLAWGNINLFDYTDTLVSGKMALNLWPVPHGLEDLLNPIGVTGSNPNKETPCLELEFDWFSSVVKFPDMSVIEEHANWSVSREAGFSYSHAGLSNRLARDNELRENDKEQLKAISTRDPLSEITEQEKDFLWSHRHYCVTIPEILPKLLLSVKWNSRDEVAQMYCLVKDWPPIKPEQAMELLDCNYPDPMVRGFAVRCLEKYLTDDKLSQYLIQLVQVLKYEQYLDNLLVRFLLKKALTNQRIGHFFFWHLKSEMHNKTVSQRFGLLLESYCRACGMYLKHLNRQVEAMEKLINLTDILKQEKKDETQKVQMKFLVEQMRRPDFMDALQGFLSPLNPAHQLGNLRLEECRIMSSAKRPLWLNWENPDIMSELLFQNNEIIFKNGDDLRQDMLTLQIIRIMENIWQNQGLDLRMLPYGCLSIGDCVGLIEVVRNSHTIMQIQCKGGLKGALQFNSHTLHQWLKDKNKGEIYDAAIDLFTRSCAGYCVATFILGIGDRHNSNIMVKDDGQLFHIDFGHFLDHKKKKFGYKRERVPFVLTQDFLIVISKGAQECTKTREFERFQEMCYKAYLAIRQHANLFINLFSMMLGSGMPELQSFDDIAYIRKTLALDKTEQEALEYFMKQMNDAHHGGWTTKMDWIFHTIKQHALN
Sequence of PI3K (P27986 whole entry partner): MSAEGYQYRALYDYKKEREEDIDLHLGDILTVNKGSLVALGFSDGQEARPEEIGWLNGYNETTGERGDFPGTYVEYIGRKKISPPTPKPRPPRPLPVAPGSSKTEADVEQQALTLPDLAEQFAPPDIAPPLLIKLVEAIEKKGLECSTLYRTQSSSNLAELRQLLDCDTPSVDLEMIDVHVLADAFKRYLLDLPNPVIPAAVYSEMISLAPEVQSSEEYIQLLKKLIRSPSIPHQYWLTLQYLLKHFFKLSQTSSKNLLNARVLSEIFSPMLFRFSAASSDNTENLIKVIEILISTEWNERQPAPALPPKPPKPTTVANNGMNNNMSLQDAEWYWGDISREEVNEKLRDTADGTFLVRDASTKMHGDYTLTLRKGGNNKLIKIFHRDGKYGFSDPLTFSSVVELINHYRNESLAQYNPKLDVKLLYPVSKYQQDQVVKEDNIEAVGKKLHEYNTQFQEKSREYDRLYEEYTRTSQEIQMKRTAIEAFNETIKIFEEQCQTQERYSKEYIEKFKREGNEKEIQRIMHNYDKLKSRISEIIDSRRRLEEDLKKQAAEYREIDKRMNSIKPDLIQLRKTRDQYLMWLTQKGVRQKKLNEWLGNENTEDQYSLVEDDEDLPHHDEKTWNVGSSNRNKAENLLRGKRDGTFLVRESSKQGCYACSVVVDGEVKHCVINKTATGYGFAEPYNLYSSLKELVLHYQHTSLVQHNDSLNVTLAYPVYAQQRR

Row | SMILES | IC50 (PI3K) | IC50 (prostate line LNCap; Homo sapiens, LNCaP, 72 h) | IC50 (breast line MDA468; Homo sapiens, 72 h) | IC50 (prostate line LNCap) | IC50 (breast line MDA468)
1 | CNC(=O)Nc1ccc(-c2nc(N3CCOCC3)c3cnn(C4CCC(O)CC4)c3n2)cc1 (stereo not drawn) [Compound 568, 1-{4-[1-(4-hydroxycyclohexyl)-4-morpholin-4-yl-1H-pyrazolo[3,4-d]pyrimidin-6-yl]phenyl}-3-methylurea] | 39 nM | 54 nM | 240 nM |  | 
2 | O=C(Nc1ccncc1)Nc1ccc(-c2nc(N3CCOCC3)c3cnn(C4CCN(C(=O)c5ccccc5)CC4)c3n2)cc1 [Compound 629, 1-{4-[1-(1-benzoylpiperidin-4-yl)-4-morpholin-4-yl-1H-pyrazolo[3,4-d]pyrimidin-6-yl]phenyl}-3-pyridin-4-ylurea] | 19 nM |  |  | 42 nM | 70 nM
3 | O=C(Nc1ccc(-c2nc(N3CCOCC3)c3cnn(C4CCN(Cc5cccnc5)CC4)c3n2)cc1)Nc1ccccn1 [Compound 588, 1-(4-{4-morpholin-4-yl-1-[1-(pyridin-3-ylmethyl)piperidin-4-yl]-1H-pyrazolo[3,4-d]pyrimidin-6-yl}phenyl)-3-pyridin-2-ylurea] | 90 nM | 330 nM | 1800 nM |  | 
4 | C=CC(=O)Nc1ccc(-c2nc(N3CCOCC3)c3cn[nH]c3n2)cc1 [Compound 526, N-[4-(4-morpholin-4-yl-1H-pyrazolo[3,4-d]pyrimidin-6-yl)phenyl]acrylamide] | 601 nM | 3400 nM | 7000 nM |  | 
5 | COC(=O)N1CCC(n2ncc3c(N4CCOCC4)nc(-c4ccc(NC(=O)Nc5ccc(F)cc5)cc4)nc32)CC1 [Compound 859, methyl 4-[6-(4-{[(4-fluorophenyl)carbamoyl]amino}phenyl)-4-morpholin-4-yl-1H-pyrazolo[3,4-d]pyrimidin-1-yl]piperidine-1-carboxylate] | 28 nM | 27 nM | 78 nM |  | 
6 | CC(C)(C)OC(=O)N1CCC(n2ncc3c(N4CCOCC4)nc(-c4ccc(NC(=O)Nc5ccncc5)cc4)nc32)CC1 [Compound 771, tert-butyl 4-(4-morpholin-4-yl-6-{4-[(pyridin-4-ylcarbamoyl)amino]phenyl}-1H-pyrazolo[3,4-d]pyrimidin-1-yl)piperidine-1-carboxylate] | 59 nM | 70 nM | 190 nM |  | 
7 | COC(=O)N1CCC(n2ncc3c(N4CCOCC4)nc(-c4ccc(NC(=O)Nc5ccc(CCNCCN)cc5)cc4)nc32)CC1 [Compound 920, methyl 4-[6-(4-{[(4-{2-[(2-aminoethyl)amino]ethyl}phenyl)carbamoyl]amino}phenyl)-4-morpholin-4-yl-1H-pyrazolo[3,4-d]pyrimidin-1-yl]piperidine-1-carboxylate] | 4 nM | 0.8 nM | 300 nM |  | 
8 | CC(C)(C)COC(=O)N1CCC(n2ncc3c(N4CCOCC4)nc(-c4ccc(NC(=O)Nc5cccnc5)cc4)nc32)CC1 [Compound 877, 2,2-dimethylpropyl 4-(4-morpholin-4-yl-6-{4-[(pyridin-3-ylcarbamoyl)amino]phenyl}-1H-pyrazolo[3,4-d]pyrimidin-1-yl)piperidine-1-carboxylate] | 32 nM | 120 nM | 400 nM |  | 
9 | Oc1cccc(-c2nc(N3CCOCC3)c3cnn(C4CCN(CC5CC5)CC4)c3n2)c1 [Example 13] | 34 nM | 270 nM | 1500 nM |  | 
10 | O=C(NCCCc1ccccc1)Nc1ccc(-c2nc(N3CCOCC3)c3cnn(C4CCN(Cc5ccccc5)CC4)c3n2)cc1 [Compound 260, 1-{4-[1-(1-benzylpiperidin-4-yl)-4-morpholin-4-yl-1H-pyrazolo[3,4-d]pyrimidin-6-yl]phenyl}-3-(3-phenylpropyl)urea] | 7030 nM | 4500 nM | 60000 nM |  | 
11 | CONC(=O)Nc1ccc(-c2nc(N3CCOCC3)c3cnn(C4CCN(C(=O)c5cccnc5)CC4)c3n2)cc1 [Example 308, 1-methoxy-3-(4-{4-morpholin-4-yl-1-[1-(pyridin-3-ylcarbonyl)piperidin-4-yl]-1H-pyrazolo[3,4-d]pyrimidin-6-yl}phenyl)urea] | 1810 nM | 800 nM | 3000 nM |  | 
12 | Oc1cccc(-c2nc(N3CCCOCC3)c3cnn(-c4ccccc4)c3n2)c1 [Compound 962, 3-[4-(1,4-oxazepan-4-yl)-1-phenyl-1H-pyrazolo[3,4-d]pyrimidin-6-yl]phenol] | 1090 nM | 6000 nM | 12000 nM |  | 
13 | CNC(=O)Nc1ccc(-c2nc(N3CCOCC3)c3cnn(C4CCN(C(=O)c5ccc(C#N)cc5)CC4)c3n2)cc1 [Compound 614, 1-(4-{1-[1-(4-cyanobenzoyl)piperidin-4-yl]-4-morpholin-4-yl-1H-pyrazolo[3,4-d]pyrimidin-6-yl}phenyl)-3-methylurea] | 89 nM | 150 nM | 220 nM |  | 
14 | Oc1cccc(-c2nc(N3CCOCC3)c3cnn(C4CCN(Cc5ccc(Cl)cc5)CC4)c3n2)c1 [Compound 19] | 11 nM | 450 nM | 1700 nM |  | 
15 | c1ccc(-n2ncc3c(N4CCOCC4)nc(-c4ccc5[nH]ncc5c4)nc32)cc1 [Compound 676, 6-(1H-indazol-5-yl)-4-morpholin-4-yl-1-phenyl-1H-pyrazolo[3,4-d]pyrimidine] | 440 nM |  |  | 20000 nM | > 60000 nM
16 | COC(=O)Nc1ccc(-c2nc(N3CCOCC3)c3cnn(C4CCNCC4)c3n2)cc1 [Compound 459, methyl [4-(4-morpholin-4-yl-1-piperidin-4-yl-1H-pyrazolo[3,4-d]pyrimidin-6-yl)phenyl]carbamate] | 1070 nM | 1700 nM | 3000 nM |  | 
17 | COC(=NC#N)Nc1ccc(-c2nc(N3CCOCC3)c3cnn(C4CCN(Cc5cccnc5)CC4)c3n2)cc1 [Compound 654, methyl N′-cyano-N-(4-{4-morpholin-4-yl-1-[1-(pyridin-3-ylmethyl)piperidin-4-yl]-1H-pyrazolo[3,4-d]pyrimidin-6-yl}phenyl)imidocarbamate] | 592 nM |  |  | 2200 nM | 1300 nM
18 | Cn1ccc2cc(-c3nc(N4CCOCC4)c4cnn(C5CCN(Cc6ccccc6)CC5)c4n3)ccc21 [Compound 89] | 5190 nM | 15000 nM | 20000 nM |  | 
19 | O=C(NCCO)Nc1ccc(-c2nc(N3CCOCC3)c3cnn(C4CCNCC4)c3n2)cc1 [Compound 775, 1-(2-hydroxyethyl)-3-[4-(4-morpholin-4-yl-1-piperidin-4-yl-1H-pyrazolo[3,4-d]pyrimidin-6-yl)phenyl]urea] | 170 nM | 26000 nM | 12000 nM |  | 
20 | Nc1ccc(-c2nc(N3CCOCC3)c3cnn(C4CCN(Cc5ccccc5)CC4)c3n2)cc1[N+](=O)[O-] [Compound 183, 4-[1-(1-benzylpiperidin-4-yl)-4-morpholin-4-yl-1H-pyrazolo[3,4-d]pyrimidin-6-yl]-2-nitroaniline] | 1170 nM | 11000 nM | 13000 nM |  | 
21 | COC(=O)Nc1ccc(-c2nc(N3CCOCC3)c3cn[nH]c3n2)cc1 [Compound 279, methyl [4-(4-morpholin-4-yl-1H-pyrazolo[3,4-d]pyrimidin-6-yl)phenyl]carbamate] | 612 nM | 3000 nM | 12000 nM |  | 
22 | COC(=O)N1CCC(n2ncc3c(N4CCOCC4)nc(-c4ccc(NC(=O)Nc5ccccc5F)cc4)nc32)CC1 [Compound 860, methyl 4-[6-(4-{[(2-fluorophenyl)carbamoyl]amino}phenyl)-4-morpholin-4-yl-1H-pyrazolo[3,4-d]pyrimidin-1-yl]piperidine-1-carboxylate] | 38 nM | 120 nM | 390 nM |  | 
23 | Clc1ccc(CN2CCC(n3ncc4c(N5CCOCC5)nc(-c5ccc6[nH]ccc6c5)nc43)CC2)cn1 [Compound 174, 1-{1-[(6-chloropyridin-3-yl)methyl]piperidin-4-yl}-6-(1H-indol-5-yl)-4-orpholin-4-yl-1H-pyrazolo[3,4-d]pyrimidine] | 304 nM | 1000 nM | 2800 nM |  | 
24 | CNC(=O)Nc1ccc(-c2nc(N3CCOCC3)c3cnn(C4CCN(C(=O)c5ccc(C)cc5)CC4)c3n2)cc1 [Example 367, 1-methyl-3-(4-{1-[1-(4-methylbenzoyl)piperidin-4-yl]-4-morpholin-4-yl-1H-pyrazolo[3,4-d]pyrimidin-6-yl}phenyl)urea] | 43 nM | 27 nM | 100 nM |  | 
25 | c1ccc(CN2CCC(n3ncc4c(N5CCOCC5)nc(-c5cnc6ccccc6c5)nc43)CC2)cc1 [Compound 230, 3-[1-(1-benzylpiperidin-4-yl)-4-morpholin-4-yl-1H-pyrazolo[3,4-d]pyrimidin-6-yl]quinoline] | 6000 nM | 60000 nM | 22000 nM |  | 
26 | CC(C)OC(=O)N1CCC(n2ncc3c(N4CCOCC4)nc(-c4ccc(NC(=O)Nc5ccccc5)cc4)nc32)CC1 [Compound 836, isopropyl 4-(6-{4-[(anilinocarbonyl)amino]phenyl}-4-morpholin-4-yl-1H-pyrazolo[3,4-d]pyrimidin-1-yl)piperidine-1-carboxylate] | 56 nM | 58 nM | 170 nM |  | 
27 | CNC(=O)Nc1ccc(-c2nc(N3CCOCC3)c3cnn(C4CCN(CC(N)=O)CC4)c3n2)cc1 [Example 332, 2-[4-(6-{4-[(methylcarbamoyl)amino]phenyl}-4-morpholin-4-yl-1H-pyrazolo[3,4-d]pyrimidin-1-yl)piperidin-1-yl]acetamide] | 66 nM | 600 nM | 1000 nM |  | 
28 | O=C(Nc1ccc(-c2nc(N3CCOCC3)c3cnn(C4CCNCC4)c3n2)cc1)NC1CC1 [Compound 776, 1-cyclopropyl-3-[4-(4-morpholin-4-yl-1-piperidin-4-yl-1H-pyrazolo[3,4-d]pyrimidin-6-yl)phenyl]urea] | 442 nM | 1100 nM | 1100 nM |  | 
